In patent publication US20230114728A1 (Venatorx Pharmaceuticals, Inc., priority 2019, published 2023) one finds MIC data, which are given here for eight compounds.

The subject of the experiment is P. aeruginosa CDC-0110. The experiment can be described thus: Broth microdilution MIC in iron-depleted CAMHB (IDM). Format: cell-based. The conditions noted are these: Pseudomonas aeruginosa, CDC0110, read-out: Minimum Inhibitory Concentration, P. aeruginosa CDC-0110. In outline:
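CLSI broth microdilution in iron-depleted cation-adjusted Mueller Hinton broth (Chelex-treated, Ca, Mg, Zn restored, pH 7.3), inoculum 2-8×10^5 CFU/mL, 2-fold compound dilutions. Pseudomonas plates incubated 16-20 h at 37 °C; MIC read visually as lowest concentration without growth.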
Background: Dilution methods test growth across graded concentrations, often in twofold steps.

≈ marks a conversion by molar mass, not a printed value. Where only a bound is given, the exact number is not on record here.

Regarding `CCN1CCN(C(=O)N[C@H](C(=O)N[C@H]2Cc3ccc(F)c(C(=O)O)c3OB2O)c2c(F)cc(O)c(O)c2Cl)C(=O)C1=O` (single isomer, unassigned) [Example 125], the MIC was > 128 µg/mL. As for `NC1(CN2CCN(C(=O)N[C@@H](C(=O)N[C@H]3Cc4ccc(F)c(C(=O)O)c4OB3O)c3cc(F)c(O)c(O)c3Cl)C(=O)C2=O)CC1` (single isomer, unassigned) [Example 133], the figure is 0.5 to 1 µg/mL (≈ 0.767 to 1.53 µM); as for `NC1(CN2CCN(C(=O)N[C@@H](C(=O)N[C@H]3Cc4ccc(F)c(C(=O)O)c4OB3O)c3c(F)cc(O)c(O)c3Cl)C(=O)C2=O)CC1` (single isomer, unassigned) [Example 134], 2 to 4 µg/mL (≈ 3.07 to 6.14 µM); as for `NCCN1CCN(C(=O)N[C@@H](C(=O)N[C@H]2Cc3ccc(F)c(C(=O)O)c3OB2O)c2cc(F)c(O)c(O)c2Cl)C(=O)C1=O` (single isomer, unassigned) [Example 179], 0.5 to 1 µg/mL (≈ 0.799 to 1.6 µM). Then `NCCCN1CCN(C(=O)N[C@@H](C(=O)N[C@H]2Cc3ccc(F)c(C(=O)O)c3OB2O)c2cc(F)c(O)c(O)c2Cl)C(=O)C1=O` (single isomer, unassigned) [Example 180], with 0.25 µg/mL (≈ 0.391 µM).

As for `C[C@@H](O)[C@@H](NC(=O)N1CCN(CCNC(=O)c2c(F)cc(O)c(O)c2Cl)C(=O)C1=O)C(=O)N[C@H]1Cc2ccc(F)c(C(=O)O)c2OB1O` [Example 102, (R)-3-((2R,3R)-2-(4-(2-(2-chloro-6-fluoro-3,4-dihydroxybenzamido)ethyl)-2,3-dioxopiperazine-1-carboxamido)-3-hydroxybutanamido)-7-fluoro-2-hydroxy-3,4-dihydro-2H-benzo[e][1,2]oxaborinine-8-carboxylic acid], the MIC lay within 0.5 to 1 µg/mL (≈ 0.717 to 1.43 µM). Then `NS(=O)(=O)Nc1cccc(C(NC(=O)N2CCN(Cc3c(F)cc(O)c(O)c3Cl)C(=O)C2=O)C(=O)N[C@H]2Cc3cccc(C(=O)O)c3OB2O)c1` (stereo partly drawn) [Example 131, (3R)-3-(2-(4-(2-chloro-6-fluoro-3,4-dihydroxybenzyl)-2,3-dioxopiperazine-1-carboxamido)-2-(3-(sulfamoylamino)phenyl)acetamido)-2-hydroxy-3,4-dihydro-2H-benzo[e][1,2]oxaborinine-8-carboxylic acid], with 2 to 4 µg/mL (≈ 2.67 to 5.34 µM). As for `NS(=O)(=O)c1cc(O)cc(C(NC(=O)N2CCN(Cc3c(F)cc(O)c(O)c3Cl)C(=O)C2=O)C(=O)N[C@H]2Cc3cccc(C(=O)O)c3OB2O)c1` (stereo partly drawn) [Example 132, (3R)-3-(2-(4-(2-chloro-6-fluoro-3,4-dihydroxybenzyl)-2,3-dioxopiperazine-1-carboxamido)-2-(3-hydroxy-5-sulfamoylphenyl)acetamido)-2-hydroxy-3,4-dihydro-2H-benzo[e][1,2]oxaborinine-8-carboxylic acid], the figure is 2 to 4 µg/mL (≈ 2.67 to 5.33 µM).
